Assay: Emulsifier experiments with coconut oils and water (Example 2)
Type: physicochemical
Details: tested as emulsifying agents; solid and liquid (MCT) coconut oils
Experimental: Several experiments were run using several different emulsifiers and combinations of different coconut oils: solid and liquid (MCT). (Note: liquid MCT is coconut oil that has medium chain triglyceride). Guar gum, lecithin, and cyclodextrin were tested as emulsifying agents and provided good results.

cyclodextrin
emulsification of the oil and water: good results
